Source: publication PMC5510229, “BCAT1 controls metabolic reprogramming in activated human macrophages and is associated with inflammatory diseases” (Nature Communications, 2017)

Assays:
In vivo pharmacokinetics = experiment: In vivo pharmacokinetics; set-up: species or system ICR mice; conditions: ICR, mouse, plasma
Method: The experiment was performed by Eurofins Panlabs Inc. Briefly, fasting pharmacokinetic parameters were obtained after administration of 125 mg kg^−1 i.v. or 500 mg kg^−1 p.o ERG240 to ICR mice and blood collection at 3, 10, 30, 60, 120 and 240 min (i.v. dosing) or 10, 30, 60, 120, 240 and 360 min (p.o. dosing). Each animal was subjected to a single blood draw and 3 animals per time point were used. Parameters were obtained from non-compartmental analysis of the plasma data using WinNonlin. Experimental details are provided in Supplementary Methods. […]
In v ivo pharmaco kinetics
ICR mice that have been fasted overnight were administered 125 mg/kg ERG240 i.v. or 500 mg/kg ERG240 p.o. At predetermined time points, mice were sedated under general inhalant anaesthesia (3 % isoflurane) and 300- 400 µL of blood were collected in tubes coated with lithium heparin by cardiac puncture . The plasma was harvested after cent rifugation and kept frozen at - 20 °C until further processing. Proteins present in the plasma were precipitated b y acetonitrile. Specificall y, 50 µL of plasm a samples were trans ferred to a 9 6-well plate and 10 µL of a acetonitrile/water 50/50 (v/v) solution was added to each well. At this point, 150 μ L of 1 ng/μ L of aspirin in acetonitrile were also added as internal standard. After sample mixing and centrifugation, 100 µL supernatant were withdrawn from each well and mixed with […] w ater for HP LC -MS/MS analysis. Sample anal ysis b y HPLC -MS/MS employed a Agilent Poroshell 120 EC-C18 column 2.7μm (3.0 x 50mm) and a gradient elution with two mobile phases (A: acetonitrile/water/formic acid 99/1/0.02 (v/v/v);
B:acetonitrile/water/formic acid 1/99/0.02 (v/v/v)). A volume of […] of sample were injected into the column and the sample concentration was determined by employing calibration curves that were generated prior to sample anal ysis b y spiking drug- free plasma with specified concentrations of ERG240. The quantitation range was 5- 10000 ng/mL.
Following sample analysis, plots of plasma concentration of ERG240 vs. time were constructed. Fundamental pharmacokinetic parameters were calculated from the non-compartmental analysis of the plasma data using WinNonlin. […]
Pannus: 0=Normal; 1=Minimal infiltration of pannus in cartilage and subchondral bone; 2=Mild infiltration of pannus in cartilage with marginal zone destruction of hard tissue in affected joints; 3=Moderate infiltration of pannus in cartilage with moderate hard tissue destruction in affected joints; 4=Marked infiltration of pannus in cartilage with marked destruction of joint architecture, most joints; 5=Severe infiltration associated with total or near total destruction of joint architecture, all joints. Cartilage Damage: 0=Normal;

[1] = tested on: human monocyte-derived macrophages (hMDMs); experiment: Seahorse extracellular flux analysis (OCR, ECAR) in hMDMs; format: cell-based; conditions: LPS 100 ng ml^−1 + ERG240 20 mM, 3 h
Method: Figure 2 BCAT1 inhibition reduces oxygen consumption and glycolysis in human macrophages. (a) Real-time extracellular OCR measurements in hMDMs (left panel) that were previously treated with either LPS (100 ng ml^−1) or LPS+ERG240 (20 mM) for 3 h. OCR values were recorded following sequential treatments with glucose (5 mM), oligomycin A (0.5 μM), carbonyl cyanide 4-(trifluoromethoxy) phenyl- hydrazine (FCCP, 1 μM) and a combination of 2-deoxy-D-glucose (2-DG, 50 mM), antimycin A (1 μM) and rotenone (1 μM). Basal respiration, estimated ATP production, and maximal respiration are shown in the right panel. n=3 healthy donor hMDMs were used in 12 technical replicates. The results are representative of three independent experiments. (b) Real-time ECAR (left panel), glycolysis and glycolytic capacity (right panel). n=3 healthy donor hMDMs were used in 12 technical replicates. The results are representative of three independent experiments. (c) hMDMs were subjected to BCAT1 siRNA (si-BCAT1) or non-targeting siRNA (Si-Control) treatment, followed by LPS stimulation (3 h, 100 ng ml^−1) before measuring BCAT1 expression levels (left panel), OCR (middle panel) and ECAR (right panel). (d) Basal respiration, estimated ATP production, maximal respiration, glycolysis and glycolytic capacity in si-Control and si-BCAT1 transfected, LPS-treated hMDMs. n=4 hMDMs were used in at least five technical replicates. Error bars are s.e.m. Significance was tested using two-tailed Student’s t-test.
Real-time measurements of OCR and ECAR were performed using a Seahorse XF96 Extracellular Flux Analyzer (Seahorse Bioscience). hMDMs cultured for 5 days in presence of RPMI containing M-CSF (100 ng ml^−1) and FCS (10%) were washed and incubated with either ERG240 or LPS or a combination of both for 3 h. Cells were then washed, re-suspended using the non-enzymatic cell dissociation buffer (Sigma) and 5 × 10^5 hMDMs were seeded as a monolayer in a 96-well microplate containing XF Assay Modified DMEM. Glucose and different metabolic drugs were injected during real-time measurements of OCR and ECAR. Basal respiration was calculated as the last measurement before addition of oligomycin – non mitochondrial respiration (minimum rate measurement after Rot/AntA). Estimated ATP production designates the last measurement before addition of oligomycin – minimum rate after oligomycin. Maximal respiration is shown as the maximum rate measurement after addition of FCCP – non mitochondrial respiration (minimum rate measurement after Rot/AntA). Glycolysis refers to ECAR values before the addition of oligomycin – ECAR values before the addition of glucose. […] In RNAi experiments, hMDMs transfected with either BCAT1 siRNA or control (non-targeting) siRNA were seeded in a 96-well microplate, LPS-stimulated (100 ng ml^−1, 3 h) and real-time measurements of OCR and ECAR were recorded, as described above.

In the case of `CC(=O)C(C)CCC(=O)O` (stereo not shown) [ERG240], the AUC(0-inf) (In vivo pharmacokinetics; IV 125 mg kg^−1, mice) is reported as 149 µg·h/mL, the AUC(0-t) (In vivo pharmacokinetics; IV 125 mg kg^−1, mice) is reported as 149 µg·h/mL and the C0 (In vivo pharmacokinetics; IV 125 mg kg^−1, mice) is reported as 231 µg/mL. For the same molecule, the MRT (In vivo pharmacokinetics; IV 125 mg kg^−1, mice) was 33 min, the clearance (In vivo pharmacokinetics; IV 125 mg kg^−1, mice) was 45.6 mL/min/kg and the half-life (In vivo pharmacokinetics; IV 125 mg kg^−1, mice) was 7.2 min. The AUC(0-inf) (In vivo pharmacokinetics; oral 500 mg kg^−1, mice) was 794 µg·h/mL, the AUC(0-t) (In vivo pharmacokinetics; oral 500 mg kg^−1, mice) was 794 µg·h/mL and the Cmax (In vivo pharmacokinetics; oral 500 mg kg^−1, mice) was 351 µg/mL. The MRT (In vivo pharmacokinetics; oral 500 mg kg^−1, mice) was 74.4 min, the Tmax (In vivo pharmacokinetics; oral 500 mg kg^−1, mice) was 60 min and the bioavailability (In vivo pharmacokinetics; oral 500 mg kg^−1, mice, read-out: F (bioavailability)) was 100%. For the same molecule, the basal respiration [1] was “significantly reduced”, the “estimated ATP production” value [1] was “significantly reduced” and the “extracellular acidification rate (ECAR)” value [1] was “decreased”. For the same molecule, the glycolysis [1] was “significantly reduced”, the glycolytic capacity [1] was “significantly reduced” and the maximal respiration [1] was “significantly reduced”. For the same molecule, the “oxygen consumption rate (OCR)” value [1] was “decreased”.
